Test results reported in patent US20240279240A1, “HETEROCYCLIC DERIVATIVES AS JANUS KINASE INHIBITORS” (CHIESI FARMACEUTICI S.P.A., priority 2021, published 2024).

Key:
JAK 3 = target: T1, JAK 3 (Homo sapiens, UniProt P52333); experiment: Biochemical potency on JAK3, TR-FRET LANCE Ultra kinase assay (examples 1-99); conditions: ATP at Km (0.2 μM), read-out: JAK3 inhibitory activity (pIC50 class) (converted)
T1 sequence (P52333 1-1124): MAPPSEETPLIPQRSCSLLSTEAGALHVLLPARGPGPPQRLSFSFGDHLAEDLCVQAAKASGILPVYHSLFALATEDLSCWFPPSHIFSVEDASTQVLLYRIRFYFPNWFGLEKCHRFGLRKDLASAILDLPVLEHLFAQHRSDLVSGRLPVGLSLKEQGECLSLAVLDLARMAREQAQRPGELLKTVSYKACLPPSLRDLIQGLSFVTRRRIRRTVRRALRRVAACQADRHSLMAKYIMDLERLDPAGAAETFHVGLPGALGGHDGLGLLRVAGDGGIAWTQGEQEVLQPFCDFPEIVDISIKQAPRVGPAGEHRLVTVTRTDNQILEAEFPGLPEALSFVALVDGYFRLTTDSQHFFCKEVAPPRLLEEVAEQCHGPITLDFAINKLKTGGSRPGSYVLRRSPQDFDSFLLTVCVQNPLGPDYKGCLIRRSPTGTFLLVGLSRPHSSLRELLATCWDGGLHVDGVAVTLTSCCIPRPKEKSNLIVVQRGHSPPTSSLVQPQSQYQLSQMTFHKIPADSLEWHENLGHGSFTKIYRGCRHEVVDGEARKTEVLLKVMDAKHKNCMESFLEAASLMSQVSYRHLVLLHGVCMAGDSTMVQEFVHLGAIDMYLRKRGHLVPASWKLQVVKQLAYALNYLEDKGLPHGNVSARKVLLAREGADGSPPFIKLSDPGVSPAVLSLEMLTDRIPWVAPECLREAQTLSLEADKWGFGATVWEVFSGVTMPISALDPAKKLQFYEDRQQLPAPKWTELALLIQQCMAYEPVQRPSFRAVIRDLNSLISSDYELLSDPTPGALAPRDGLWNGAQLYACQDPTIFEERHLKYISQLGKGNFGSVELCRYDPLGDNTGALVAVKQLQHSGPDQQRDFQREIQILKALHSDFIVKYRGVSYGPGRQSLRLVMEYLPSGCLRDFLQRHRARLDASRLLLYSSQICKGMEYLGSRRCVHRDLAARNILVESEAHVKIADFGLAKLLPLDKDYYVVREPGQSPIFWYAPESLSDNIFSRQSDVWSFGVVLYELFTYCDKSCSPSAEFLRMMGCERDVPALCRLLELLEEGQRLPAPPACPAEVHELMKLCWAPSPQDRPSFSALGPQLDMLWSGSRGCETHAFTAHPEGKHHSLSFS
Protocol: (§1) The objective of this study was to assess the capability of compounds to inhibit all 4 JAK isoforms activity in a cell-free environment. Assay for JAK 1, JAK 2, JAK 3 and TYK2 were performed by Time-resolved fluorescence resonance energy transfer (TR-FRET) technology. It consists in the interaction of two labelled binding partners detected by the energy transfer from an excited donor to an acceptor dye and measurement of light emission by the acceptor dye. LANCE Ultra kinase assay was used. In presence of JAK 1, JAK 2, JAK 3 and TYK2 kinases and ATP (corresponding to Km), the ULight peptide substrate (LANCE Ulight-JAK-1 (Tyr1023) Peptide, Perkin Elmer, TRF0121) is phosphorylated. It is then captured by Eu-anti-phospho-substrate antibody (LANCE Eu-W1024 Anti-phosphotyrosine (PT66), Perkin Elmer, AD0069), which bring the Eu-chelate donor and ULight acceptor dyes into close proximity. Upon excitation at 320 nm, the Eu-chelate transfers its energy to the ULight dye, resulting in a fluorescent light emission at 665 nm.
(§2) Serial dilutions of compounds in pure DMSO are prepared from 10 mM DMSO stock solutions. Compounds were tested in 384-well plate for 11 consecutive 5-fold dilutions starting from 20 μM highest concentration (20 μM-[…]). 200 nL of compound were transferred from mother plate to test plate by using Mosquito (TTP labtech). Assay was performed in 384-well Perkin Elmer test plate in 20 μL assay volume (kinase reaction) and 40 μL total volume (stopping reagent and antibody detection reagents). In 10 μL of substrate solution (peptide+ATP) 30/50/20/10 nM of peptide and 20/0.7/0.2/12 μM of ATP were added for JAK 1, JAK 2, JAK 3 and TYK2 respectively. 10 μL of enzyme solution was added to kinase reaction at these concentrations: 0.15/0.083/0.025/0.144 ng/μL of JAK 1, JAK 2, JAK 3 and TYK2 respectively. After shaking and 1.5 h of incubation at r.t., 20 μL of Stop (10 μL EDTA) and Detection mixture (10 μL Europium-anti-phospho antibody, final: 0.5 nM) were added. Reading was performed after 1 h of incubation on a EnVision 2104 reader (Perkin Elmer).
(§3) Calculation of IC50 data, curves and QC analysis was performed by using Excel tool and GraphPadPrism software, v9. Briefly, individual concentration-effect curves are generated by plotting the logarithm of the tested concentration of tested compounds (X) vs. corresponding percent inhibition values (Y) using least squares (ordinary) fit. Best fit IC50 values are calculated using Log(inhibitor) vs. normalized response—Variable slope equation, where Y=100/(1+10^((Log IC50−X)*HillSlope)). QC criteria parameters (Z′, S:B, R2, HillSlope) were checked for every IC50 curve. Calculation of IC50 data, curves and QC analysis were made using Excel tools and GraphPadPrism software. QC criteria parameters: Z′≥0.5, Hill Slope range 0.5 to 5, S:B>2.

TYK2 = TYK2 (Homo sapiens, UniProt P29597); experiment: Biochemical potency on Tyk2, TR-FRET LANCE Ultra kinase assay (examples 1-99); conditions: ATP at Km (12 μM), read-out: Tyk2 inhibitory activity (pIC50 class) (converted)
Protocol: as §1, §2, §3

JAK 2 = JAK 2 (Homo sapiens, UniProt O60674); experiment: Biochemical potency on JAK2, TR-FRET LANCE Ultra kinase assay (examples 1-99); conditions: ATP at Km (0.7 μM), read-out: JAK2 inhibitory activity (pIC50 class) (converted)
Protocol: as §1, §2, §3

JAK 1 = JAK 1 (Homo sapiens, UniProt P23458); experiment: Biochemical potency on JAK1, TR-FRET LANCE Ultra kinase assay (examples 1-99); conditions: ATP at Km (20 μM), read-out: JAK1 inhibitory activity (pIC50 class) (converted)
Protocol: as §1, §2, §3

Sequence of TYK2 (P29597 whole entry): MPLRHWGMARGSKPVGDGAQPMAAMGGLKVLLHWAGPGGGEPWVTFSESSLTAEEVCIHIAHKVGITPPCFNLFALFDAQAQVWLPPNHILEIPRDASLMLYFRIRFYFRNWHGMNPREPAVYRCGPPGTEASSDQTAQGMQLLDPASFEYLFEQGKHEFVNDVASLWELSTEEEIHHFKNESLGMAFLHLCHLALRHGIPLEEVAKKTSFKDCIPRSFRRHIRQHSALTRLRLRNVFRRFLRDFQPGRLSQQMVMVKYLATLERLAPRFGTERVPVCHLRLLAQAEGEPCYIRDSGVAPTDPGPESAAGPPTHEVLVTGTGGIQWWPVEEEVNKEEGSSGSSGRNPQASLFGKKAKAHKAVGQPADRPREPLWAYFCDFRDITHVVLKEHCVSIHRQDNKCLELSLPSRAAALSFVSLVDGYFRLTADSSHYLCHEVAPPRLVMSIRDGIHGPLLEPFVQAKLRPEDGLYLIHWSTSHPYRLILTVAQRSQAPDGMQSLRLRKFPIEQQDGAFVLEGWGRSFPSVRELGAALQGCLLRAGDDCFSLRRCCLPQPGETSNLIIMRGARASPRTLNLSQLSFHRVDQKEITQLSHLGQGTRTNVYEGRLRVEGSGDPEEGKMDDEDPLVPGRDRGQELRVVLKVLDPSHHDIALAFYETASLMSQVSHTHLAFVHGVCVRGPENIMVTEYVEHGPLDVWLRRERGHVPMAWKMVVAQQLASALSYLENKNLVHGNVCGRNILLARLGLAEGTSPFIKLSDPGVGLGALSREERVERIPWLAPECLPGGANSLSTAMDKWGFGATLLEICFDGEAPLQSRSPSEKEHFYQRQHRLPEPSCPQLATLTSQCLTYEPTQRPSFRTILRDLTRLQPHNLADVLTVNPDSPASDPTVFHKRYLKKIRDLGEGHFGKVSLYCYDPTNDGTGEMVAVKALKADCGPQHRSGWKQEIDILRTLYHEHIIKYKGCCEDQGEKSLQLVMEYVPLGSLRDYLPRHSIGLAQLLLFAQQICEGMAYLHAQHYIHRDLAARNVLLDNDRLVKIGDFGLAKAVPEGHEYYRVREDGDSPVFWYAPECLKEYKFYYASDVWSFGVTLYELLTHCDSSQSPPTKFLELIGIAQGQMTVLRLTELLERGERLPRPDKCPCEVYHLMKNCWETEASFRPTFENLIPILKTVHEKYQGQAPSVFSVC
Sequence of JAK 2 (O60674 whole entry): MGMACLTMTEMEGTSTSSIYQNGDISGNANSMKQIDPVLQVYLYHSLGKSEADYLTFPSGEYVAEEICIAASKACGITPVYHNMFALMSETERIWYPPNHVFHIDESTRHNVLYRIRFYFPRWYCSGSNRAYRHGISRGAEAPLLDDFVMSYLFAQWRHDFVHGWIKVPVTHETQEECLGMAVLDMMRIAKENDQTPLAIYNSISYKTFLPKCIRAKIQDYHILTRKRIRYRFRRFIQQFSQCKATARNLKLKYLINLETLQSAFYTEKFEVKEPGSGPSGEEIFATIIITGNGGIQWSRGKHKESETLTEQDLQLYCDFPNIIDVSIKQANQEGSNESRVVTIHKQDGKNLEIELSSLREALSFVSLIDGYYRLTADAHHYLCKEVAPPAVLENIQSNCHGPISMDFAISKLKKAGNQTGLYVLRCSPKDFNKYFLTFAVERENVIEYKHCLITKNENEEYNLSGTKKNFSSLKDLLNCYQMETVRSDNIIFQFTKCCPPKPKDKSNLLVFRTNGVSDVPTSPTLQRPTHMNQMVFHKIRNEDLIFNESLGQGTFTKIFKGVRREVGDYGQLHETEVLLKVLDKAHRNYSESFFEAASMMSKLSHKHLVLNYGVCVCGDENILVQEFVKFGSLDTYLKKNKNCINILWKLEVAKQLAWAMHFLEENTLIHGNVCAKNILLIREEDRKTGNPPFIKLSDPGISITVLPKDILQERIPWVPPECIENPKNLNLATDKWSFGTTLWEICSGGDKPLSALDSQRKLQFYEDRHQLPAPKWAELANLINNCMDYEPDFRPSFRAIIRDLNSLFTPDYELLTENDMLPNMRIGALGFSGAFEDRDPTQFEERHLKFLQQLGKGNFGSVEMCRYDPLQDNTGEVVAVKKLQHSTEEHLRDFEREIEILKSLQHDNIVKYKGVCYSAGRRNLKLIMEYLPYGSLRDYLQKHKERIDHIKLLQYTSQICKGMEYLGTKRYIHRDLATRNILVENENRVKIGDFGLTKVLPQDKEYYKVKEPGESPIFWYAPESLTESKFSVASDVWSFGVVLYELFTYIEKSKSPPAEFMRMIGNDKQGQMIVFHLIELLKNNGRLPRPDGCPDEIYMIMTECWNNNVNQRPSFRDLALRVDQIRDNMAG
Sequence of JAK 1 (P23458 whole entry): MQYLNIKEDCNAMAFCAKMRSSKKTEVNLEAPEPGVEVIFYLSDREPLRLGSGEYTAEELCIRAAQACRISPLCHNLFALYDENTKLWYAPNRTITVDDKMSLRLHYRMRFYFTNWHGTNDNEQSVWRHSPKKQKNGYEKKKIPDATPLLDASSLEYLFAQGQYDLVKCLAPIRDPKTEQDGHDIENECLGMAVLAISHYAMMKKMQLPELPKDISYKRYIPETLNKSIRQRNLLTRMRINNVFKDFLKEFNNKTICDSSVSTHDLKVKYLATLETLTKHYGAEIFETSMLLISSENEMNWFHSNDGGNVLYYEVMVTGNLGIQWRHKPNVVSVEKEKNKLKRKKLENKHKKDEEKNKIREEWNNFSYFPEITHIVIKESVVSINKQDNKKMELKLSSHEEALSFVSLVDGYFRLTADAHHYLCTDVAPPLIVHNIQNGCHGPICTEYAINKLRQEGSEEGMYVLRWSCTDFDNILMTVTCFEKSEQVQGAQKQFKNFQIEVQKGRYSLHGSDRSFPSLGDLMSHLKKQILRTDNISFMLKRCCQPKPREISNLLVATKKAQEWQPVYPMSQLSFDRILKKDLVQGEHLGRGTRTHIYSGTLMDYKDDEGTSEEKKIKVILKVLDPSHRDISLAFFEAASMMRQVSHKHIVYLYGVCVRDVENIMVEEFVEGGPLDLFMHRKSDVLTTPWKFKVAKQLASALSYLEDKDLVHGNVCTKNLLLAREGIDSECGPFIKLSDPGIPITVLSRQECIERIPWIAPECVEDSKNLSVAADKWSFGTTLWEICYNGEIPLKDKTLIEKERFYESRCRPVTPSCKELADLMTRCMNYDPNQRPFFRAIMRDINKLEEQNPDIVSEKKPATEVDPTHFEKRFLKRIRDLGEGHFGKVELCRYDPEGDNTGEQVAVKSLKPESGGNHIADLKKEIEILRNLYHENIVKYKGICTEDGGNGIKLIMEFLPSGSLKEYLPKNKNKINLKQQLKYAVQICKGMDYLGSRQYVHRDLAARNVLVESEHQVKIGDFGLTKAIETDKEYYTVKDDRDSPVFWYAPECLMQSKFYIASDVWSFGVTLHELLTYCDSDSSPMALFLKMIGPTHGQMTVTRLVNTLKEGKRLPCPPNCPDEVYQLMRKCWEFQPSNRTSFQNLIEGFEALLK

Row | IC50 (JAK 3) | IC50 (TYK2) | IC50 (JAK 2) | IC50 (JAK 1) | Compound
1 | 5.01 to 50.1 nM | 5.01 to 50.1 nM | 5.01 to 50.1 nM | 5.01 to 50.1 nM | COc1ccc(Cl)cc1-n1ncc2c(N)nc(-c3cnn4cccnc34)cc21 [Example 56, 1-(5-chloro-2-methoxyphenyl)-6-(pyrazolo[1,5-a]pyrimidin-3-yl)-1H-pyrazolo[4,3-c]pyridin-4-amine]
2 | 5.01 to 50.1 nM | 5.01 to 50.1 nM | ≤ 5.01 nM | 5.01 to 50.1 nM | CNCC(=O)Nc1nn(-c2cc(Cl)ccc2OC)c2cc(-c3cnn4cccnc34)ncc12 [Example 87, N-(1-(5-chloro-2-methoxyphenyl)-6-(pyrazolo[1,5-a]pyrimidin-3-yl)-1H-pyrazolo[4,3-c]pyridin-3-yl)-2-(methylamino)acetamide]
3 | ≤ 5.01 nM | 5.01 to 50.1 nM | ≤ 5.01 nM | ≤ 5.01 nM | Cc1nn(-c2cc(Cl)ccc2OC(F)F)c2cc(Nc3ncc[nH]c3=O)ncc12 [Example 99, 3-((1-(5-chloro-2-(difluoromethoxy)phenyl)-3-methyl-1H-pyrazolo[4,3-c]pyridin-6-yl)amino)pyrazin-2(1H)-one]
4 | 5.01 to 50.1 nM | > 50.1 nM | 5.01 to 50.1 nM | > 50.1 nM | Cc1nn(-c2cc(SC3CCNCC3)ccc2OC(F)F)c2cc(-c3cnn4cccnc34)ncc12 [Example 74, 1-(2-(difluoromethoxy)-5-(piperidin-4-ylthio)phenyl)-3-methyl-6-(pyrazolo[1,5-a]pyrimidin-3-yl)-1H-pyrazolo[4,3-c]pyridine]
5 | ≤ 5.01 nM | 5.01 to 50.1 nM | ≤ 5.01 nM | 5.01 to 50.1 nM | COc1ccc(F)cc1-n1nc(NCCCN(C)C)c2cnc(Nc3ncc[nH]c3=O)cc21 [Example 97, 3-((3-((3-(dimethylamino)propyl)amino)-1-(5-fluoro-2-methoxyphenyl)-1H-pyrazolo[4,3-c]pyridin-6-yl)amino)pyrazin-2(1H)-one]
6 | ≤ 5.01 nM | > 50.1 nM | ≤ 5.01 nM | 5.01 to 50.1 nM | Cc1nn(-c2cc(SCC(N)=O)ccc2OC(F)F)c2cc(-c3cnn4cccnc34)ncc12 [Example 68, 2-((4-(difluoromethoxy)-3-(3-methyl-6-(pyrazolo[1,5-a]pyrimidin-3-yl)-1H-pyrazolo[4,3-c]pyridin-1-yl)phenyl)thio)acetamide]
7 | 5.01 to 50.1 nM | > 50.1 nM | ≤ 5.01 nM | 5.01 to 50.1 nM | COc1ccc(S(=O)(=O)NCCO)cc1-n1nc(C)c2cnc(-c3cnn4cccnc34)cc21 [Example 15, N-(2-hydroxyethyl)-4-methoxy-3-(3-methyl-6-(pyrazolo[1,5-a]pyrimidin-3-yl)-1H-pyrazolo[4,3-c]pyridin-1-yl)benzenesulfonamide]
8 | ≤ 5.01 nM | 5.01 to 50.1 nM | ≤ 5.01 nM | 5.01 to 50.1 nM | COCCS(=O)(=O)c1ccc(OC(F)F)c(-n2nc(C)c3cnc(Nc4ncc[nH]c4=O)cc32)c1 [Example 95, 3-((1-(2-(difluoromethoxy)-5-((2-methoxyethyl)sulfonyl)phenyl)-3-methyl-1H-pyrazolo[4,3-c]pyridin-6-yl)amino)pyrazin-2(1H)-one]
9 | ≤ 5.01 nM | > 50.1 nM | 5.01 to 50.1 nM | 5.01 to 50.1 nM | Cc1nn(-c2cc(SC3CCOCC3)ccc2OC(F)F)c2cc(-c3cnn4cccnc34)ncc12 [Example 72, 1-(2-(difluoromethoxy)-5-((tetrahydro-2H-pyran-4-yl)thio)phenyl)-3-methyl-6-(pyrazolo[1,5-a]pyrimidin-3-yl)-1H-pyrazolo[4,3-c]pyridine]
10 | 5.01 to 50.1 nM | 5.01 to 50.1 nM | ≤ 5.01 nM | 5.01 to 50.1 nM | COc1ccc(C(F)F)cc1-n1nc(C)c2cnc(-c3cnn4cccnc34)cc21 [Example 3, 1-(5-(difluoromethyl)-2-methoxyphenyl)-3-methyl-6-(pyrazolo[1,5-a]pyrimidin-3-yl)-1H-pyrazolo[4,3-c]pyridine]
11 | ≤ 5.01 nM | 5.01 to 50.1 nM | ≤ 5.01 nM | 5.01 to 50.1 nM | COc1ccc(F)cc1-n1nc(C)c2cnc(Nc3ncc[nH]c3=O)cc21 [Example 90, 3-((1-(5-Fluoro-2-methoxyphenyl)-3-methyl-1H-pyrazolo[4,3-c]pyridin-6-yl)amino)pyrazin-2(1H)-one]
12 | > 50.1 nM | > 50.1 nM | 5.01 to 50.1 nM | > 50.1 nM | CNc1nc(-c2cnn3cccnc23)cc2c1cnn2-c1cc(Cl)ccc1OC [Example 52, 1-(5-chloro-2-methoxyphenyl)-N-methyl-6-(pyrazolo[1,5-a]pyrimidin-3-yl)-1H-pyrazolo[4,3-c]pyridin-4-amine]
13 | ≤ 5.01 nM | 5.01 to 50.1 nM | ≤ 5.01 nM | ≤ 5.01 nM | COc1ccc(Cl)cc1-n1nc(NC(C)=O)c2cnc(-c3cnn4cccnc34)cc21 [Example 40, N-(1-(5-chloro-2-methoxyphenyl)-6-(pyrazolo[1,5-a]pyrimidin-3-yl)-1H-pyrazolo[4,3-c]pyridin-3-yl)acetamide]
14 | 5.01 to 50.1 nM | 5.01 to 50.1 nM | 5.01 to 50.1 nM | 5.01 to 50.1 nM | O=C(c1nn(-c2cc(Cl)ccc2OC(F)F)c2cc(-c3cnn4cccnc34)ncc12)N1CCS(=O)(=O)CC1 [Example 35, (1-(5-chloro-2-(difluoromethoxy)phenyl)-6-(pyrazolo[1,5-a]pyrimidin-3-yl)-1H-pyrazolo[4,3-c]pyridin-3-yl)(1,1-dioxidothiomorpholino)methanone]
15 | 5.01 to 50.1 nM | 5.01 to 50.1 nM | ≤ 5.01 nM | 5.01 to 50.1 nM | CSc1ccc(Cl)cc1-n1nc(C)c2cnc(-c3cnn4cccnc34)cc21 [Example 5, 1-(5-chloro-2-(methylthio)phenyl)-3-methyl-6-(pyrazolo[1,5-a]pyrimidin-3-yl)-1H-pyrazolo[4,3-c]pyridine]
16 | 5.01 to 50.1 nM | > 50.1 nM | 5.01 to 50.1 nM | 5.01 to 50.1 nM | CNCc1nn(-c2cc(Cl)ccc2OC(F)F)c2cc(-c3cnn4cccnc34)ncc12 [Example 31, 1-(1-(5-chloro-2-(difluoromethoxy)phenyl)-6-(pyrazolo[1,5-a]pyrimidin-3-yl)-1H-pyrazolo[4,3-c]pyridin-3-yl)-N-methylmethanamine]
